Laboratory results from patent US20100086623A1, “Chemical Combination for the Generation of Disinfectant and Heat” (priority 2004, published 2010).

Test system: Staphylococcus aureus
Assay: Destruction of S. aureus cultures by aqueous chlorine dioxide solutions (plate counts)
Type: cell-based
Procedure: In this test, S. aureus cells were suspended in Butterfield's phosphate buffer diluent with a pH of 7.2. The density of each of these robust collections of S. aureus suspensions was approximately 10^7 colony-forming-units per mL (10^7 CFU/mL). […] Cell counts were made on samples recovered on Baird-Parker Agar with EY-Tellurite and incubated at 35° C. for 48 hours. […] In these test results, S. aureus survival was detected only at the most dilute chlorine dioxide solutions (0.044 ppm). […] This observation is consistent with lethality of chemical agents for destroying microorganisms being the mathematical product of the concentration of the lethal agent (C) and the time (t) of exposure, (C×t).

[O][Cl+][O-] [chlorine dioxide]
inactivation of the pathogens (0.044 ppm chlorine dioxide solution, exposure 24 hours): 100%
survivors ([ClO2] 0.044 ppm, 30° C., 3-5 min exposure): 3.4% survivors
CFU/mL × 10^−6 ([ClO2] 0.044 ppm, 30° C., 3-5 min exposure, control 3.4): 0.116 CFU/mL × 10^−6
CFU/mL × 10^−6 ([ClO2] 0.044 ppm, exposure for 24 h): 0.00 CFU/mL × 10^−6
CFU/mL × 10^−6 ([ClO2] 0.044 ppm, exposure over night): <1.0 × 10^−4 CFU/mL × 10^−6
CFU/mL × 10^−6 ([ClO2] 0.44 ppm, 30° C., 3-5 min exposure, control 9.55): 0 CFU/mL × 10^−6
CFU/mL × 10^−6 ([ClO2] 4.4 ppm, 30° C., 3-5 min exposure, control 3.4): 0.00 CFU/mL × 10^−6
CFU/mL × 10^−6 ([ClO2] 44 ppm, 30° C., 3-5 min exposure, control 9.55): 0.00 CFU/mL × 10^−6
